Entries after “also recorded” stand apart in the source; their conditions may differ.
What was measured:
[1] = Bioavailability of [methyl-14C]-labelled citicoline by oral and venous route, radioactivity in plasma; type: in vivo, experimental animal models
Description: In experimental animal models, the applicant compared the bioavailability by oral and venous route of citicoline, labeling it with a radioactive label -[methyl-14C].

Water solubility = type: physicochemical
retinal cells = details: for cytotoxicity (cell death) on the cell cultures: 1, 10, 100 µM for 24 h; for toxicity to retinal cells (MTT): 1, 10 or 100 µM
Procedure: (§1) The MTT assay was used to measure the viability of both neuronal and retina cells. The cells were prepared in a 96-well plate in DMEM-F12 with 7% FBS. After cultured in DMEM-F12 without serum for 12 h, Ab25-35 ([…]) or glucose oxidase (GOX) alone or in combination with homotaurine (Hom), citicoline (CITC) or Hom + CITC were added to the medium. Twenty-four hours later, the cells were incubated with […] MTT (Roche, 0.5 mg/ml) at 37 °C for 4 hours, then the crystals were dissolved in […] DMSO. Absorbance at 570 nm was measured with a spectrophotometer (TECAN Infinite M200, Switzerland).

[2] = 50 mg per day, individuals with an average decline of cognitive functions; cited from earlier work
[3] = Randomized double-blind, placebo-controlled trial in subjects with medium to moderate Alzheimer's disease; type: in vivo, human; details: 50, 100, 150 mg homotaurine in combination with 500, 750 and 1000 mg sodium citicoline
Procedure: Studies to evaluate the pharmacokinetic-pharmacodynamic effect of compositions for use of the invention have provided positive indications about the activity. In particular, in a randomized double-blind, placebo-controlled trial in which 58 subjects with from medium to moderate Alzheimer's disease were administered 50, 100, 150 mg of homotaurine in combination with 500, 750 and 1000 mg of sodium citicoline.

Aβ40 = Aβ40 (Homo sapiens, UniProt P05067); details: 8-week treatment, 30 or 100 mg/kg/day; cited from earlier work
Aβ42 = Aβ42 (Homo sapiens, UniProt P05067); details: 8-week treatment, 30 or 100 mg/kg/day; cited from earlier work
[4] = tested on: human retina pigment epithelium (ARPE-19); assay: MTT assay, cell viability of retina cells against cytotoxicity induced by glucose oxidase (GOX); type: cell-based; details: cytotoxicity induced by GOX 50 mU/ml; 1 µM; n = 5
Procedure: as §1

Aβ40, sequence (P05067 672-711 limits assumed, species assumed): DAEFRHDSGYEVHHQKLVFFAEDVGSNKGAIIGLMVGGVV
Aβ42, sequence (P05067 672-713 limits assumed, species assumed): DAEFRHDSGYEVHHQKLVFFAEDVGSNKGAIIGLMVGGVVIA

Row | SMILES | bioavailability ([1]; oral administration) | equivalence of the two alternative administration routes (percentage of radioactivity in plasma over time) ([1]; oral vs venous route, [methyl-14C] label) | water solubility (Water solubility) | cytotoxicity (cell death) on the cell cultures (retinal cells) | toxicity to retinal cells (MTT) (retinal cells) | effect on atrophy of the hippocampus [2] | effect on episodic memory loss [2] | crossing of the blood-brain barrier [3] | plasma level of Aβ40 (Aβ40) | plasma level of Aβ42 (Aβ42) | cell viability (MTT) [4]
1 | C[N+](C)(C)CCOP(=O)(O)OP(=O)([O-])OC[C@H]1O[C@@H](n2ccc(N)nc2=O)[C@H](O)[C@@H]1O [citicoline, 2-[{[5-(4-amino-2-oxopyrimidin-1-yl)-3,4-dihydroxyoxolan-2-yl]methoxy-hydroxyphosphoryl}oxy-hydroxyphosphoryl]oxyethyl-thrimethylazanium] | greater than 90% | about 90% | high | None of the concentrations induced cell death; also recorded: substantial absence of cytotoxicity | no evidence of selective toxicity |  |  |  |  |  | 
2 | NCCCS(=O)(=O)O [homotaurine, 3-amino-1-propanesulfonic acid] |  |  |  | None of the concentrations induced cell death; also recorded: substantial absence of cytotoxicity | no evidence of selective toxicity | positive effect | positive effect | crossed the blood-brain barrier | able to reduce | able to reduce | able to improve the cell viability
3 | C[N+](C)(C)CCOP(=O)([O-])OP(=O)([O-])OC[C@H]1O[C@@H](n2ccc(N)nc2=O)[C@H](O)[C@@H]1O.[Na+] [sodium citicoline] |  |  |  |  |  |  |  | crossed the blood-brain barrier |  |  | 

Reference: patent EP3219306B1, “COMPOSITION COMPRISING CITICOLINE AND HOMOTAURINE FOR PREVENTING AND TREATING NEUODEGENERATIVE DISEASES AND COGNITIVE DISORDERS” (NEURAXPHARM ITALY S.P.A., priority 2016, dated 2017)
